Test results as given in patent USRE49873E1, “APP specific bace inhibitors (ASBIs) and uses thereof” (BUCK INSTITUTE FOR RESEARCH ON AGING, priority 2012, dated 2024).
“Also recorded” adds a separate entry of the source.

Columns and labels:
[1] = system: APLP2-Gal4 transactivation in HEK293T cells; test: APLP2-Gal4/Mint3/TAZ transactivation assay; assay type: cell-based; conditions: Mint3 and TAZ present, galangin at 10 μM
Description: (§1) FIGS. 7A and 7B illustrate inhibition of APP-Gal4 and APLP2-Gal4 transactivation by galangin. […] This transactivation was inhibited by Galangin and BACE inhibitor IV. FIG. 7B: Potent transactivation of transcription was also achieved with APLP2 fused to the Gal4 DNA binding domain when both Mint3 and TAZ were present. This transactivation was inhibited by Galangin and BACE inhibitor IV. […] The normalized luciferase activity is expressed as a percentage of the DMSO treated control (FIGS. 7A, 7B). Error bars indicate SEM. (*, p<0.05; **, p<0.01; ***, p<0.001; n=3, student t test).
(§2) This assay system is described by Orcholski et al. (2011) J. Alzheimers Dis., 23(4):689-699. Transactivation is achieved upon transfection with Mint3 and Taz. The ASBI was expected to inhibit only the transactivation of APP-Gal4, not that of APLP2-Gal4. For these experiments cells were co-transfected with a Gal4-luciferase reporter plasmid (to measure transactivation), a beta-galactosidase plasmid (to normalize for transfection efficiency), and the test plasmids identified. The normalized luciferase activity was expressed as fold induction over transcription by APP-Gal4 alone (FIG. 7A), or as fold induction over APLP2-Gal4 alone (FIG. 7B).
(§3) HEK293T cells were co-transfected with five plasmids: (1) pG5E1B-luc, 0.3 μg; (2) pCMV-LacZ, 0.1 μg; (3) pMst-APP (APP-Gal4) or pcDNA3.1-APLP2-Gal4, 0.3 μg; (4) pCMV5-Mint3, 1.0 μg; (5) pEF-N-FLAG-TAZ, 1.0 μg. Cells were harvested 48 hr after transfection in 0.2 ml per well Cell Culture Lysis Buffer (Promega), and their luciferase and β-galactosidase activities were determined with the Promega luciferase assay kit and the Promega β-galactosidase assay kit, respectively. The luciferase activity was standardized by the β-galactosidase activity to control for transfection efficiency and general effects on transcription. Transfections were performed at 80-90% cofluency in six-well plates using Lipofectamine 2000 (Invitrogen).

[2] = system: APP-Gal4 transactivation in HEK293T cells; test: APP-Gal4/Mint3/TAZ transactivation assay; assay type: cell-based; conditions: Mint3 and TAZ present, galangin at 10 μM
Description: as §1, §2, §3

[3] = biological target: T1, BACE cleavage of the P5-P5′ substrate (Homo sapiens, UniProt P56817); test: ASBI assay b): P5-P5′ fluorescence substrate cleavage assay; assay type: biochemical; conditions: flavonoids at 100 uM
T1 construct: purchased Sigma-Aldrich (kit); R&D (HTS description) CS0010; 931-AS-050
Protocol: As illustrated in the Examples, in one embodiment, an MBP-C125 APP695 wt fusion protein can be used as one of the substrates. The second substrate can be the commercially available P5-P5′ fluorescence substrate. Each of these substrates is incubated with recombinant BACE (R&D (cat#931-AS-050) in, for example, a 96 well plate format. For the MBP-C125 substrate the C-99 product from the BACE cleavage can be measured using an AlphaLisa assay as a readout. For the P5-5′ substrate the […] upon BACE cleavage can be used as the readout. An ASBI would inhibit the BACE cleavage of the MBP-C125 substrate while not being inhibitory of the fluorescence substrate. […]
A primary high-throughput screening (HTS) assay was set up for identification of ASBIs using a dual-substrate testing paradigm (FIGS. 3A & 3B). The previously reported (Sinha et al. (1999) Nature, 402: 537-540) BACE substrate the MBP-C125 APP695 wt fusion protein consisting of maltose binding protein fused to the carboxyterminal 125 amino acids of wild type APP, was used as the primary substrate; and the commercially available P5-P5′ fluorescence substrate, derived from the P5-P5′ residues of the BACE cleavage site of APP, was used as the secondary substrate. […]

[4] = biological target: T2, TRX-eAPP575-624 (Homo sapiens, UniProt P05067); test: Surface plasmon resonance binding to APP ectodomain fragments; conditions: FIG. 5B
T2 construct: thioredoxin (TRX) and residues 575-624 of the ectodomain; made in house
Protocol: Three fusion proteins were immobilized via amine coupling using 20 mM phosphate, 125 mM sodium chloride pH 7.4. The three proteins were MBP-eAPP230-624—a fusion protein containing maltose binding protein (MBP) and residues 230624 of the ectodomain of APP (90-kDa) (FC4), eAPP230-624—a protein that contains only residues 230-624 (45-kDa)(FC2), and TRX-eAPP575-624—a fusion protein containing thioredoxin (TRX) and residues 575-624 of the ectodomain (20 -kDa) (FC3). The proteins were produced as described in Libeu, et al. (2011) J. Alzheimers Dis., 25(3): 547-566 Libeu et al (2011). The flow cell FC1 was used as a control. Galangin was diluted from 10 mM solutions in DMSO to 50 μM in 1% DMSO, 20 mM sodium phosphate pH 7.4, 125 mM sodium chloride, 0.05% Tween and then serially diluted by 1.5 for 10 steps. Binding traces were recorded for each dilution with a binding phase of 60 seconds and a dissociation phase of 240 seconds. Each cycle was performed at 20° C. with a constant flow rate of 20 μl/min. […]
The binding affinity of the compounds for the ectodomain of APP was determined using SPR. […] Galangin at various concentrations were used in the flow through over the chip and the plasmon resonance signal was determined using a Biacore T100 (FIG. 5B).

T2 sequence (P05067 650-699): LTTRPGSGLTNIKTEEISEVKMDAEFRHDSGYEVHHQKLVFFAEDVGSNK
T1 sequence (P56817 46-501): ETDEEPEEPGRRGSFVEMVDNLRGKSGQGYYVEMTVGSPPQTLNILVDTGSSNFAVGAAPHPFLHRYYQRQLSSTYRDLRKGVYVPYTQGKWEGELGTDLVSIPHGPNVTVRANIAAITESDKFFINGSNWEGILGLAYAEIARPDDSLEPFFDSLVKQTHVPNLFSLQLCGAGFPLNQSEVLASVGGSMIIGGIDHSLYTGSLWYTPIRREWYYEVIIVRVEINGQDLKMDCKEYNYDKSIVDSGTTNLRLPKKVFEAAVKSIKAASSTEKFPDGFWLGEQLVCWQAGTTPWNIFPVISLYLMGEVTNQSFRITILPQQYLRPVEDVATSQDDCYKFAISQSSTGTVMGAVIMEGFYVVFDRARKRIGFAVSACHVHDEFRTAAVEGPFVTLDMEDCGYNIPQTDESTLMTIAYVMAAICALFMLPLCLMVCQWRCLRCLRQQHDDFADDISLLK

O=c1c(O)c(-c2ccccc2)oc2cc(O)cc(O)c12 [Galangin]
APLP2-Gal4 transactivation [1]: inhibited | APLP2-Gal4 transactivation ([1]; listed as galangin): inhibit; also recorded: inhibits APP-Gal4 and APLP2-Gal4 | APP-Gal4 transactivation [2]: inhibited | APP-Gal4 transactivation ([2]; listed as galangin): inhibit; also recorded: inhibits APP-Gal4 and APLP2-Gal4 | inhibition of BACE cleavage of the P5-P5′ substrate [3]: showing no inhibition of the P5-P5′ substrate | binding to APP by SPR [4]: demonstrated binding to the APP substrate
